Results taken from US7741529B1, “Transgenic animal model for catecholaminergic polymorphic ventricular tachycardia (CPVT) and use thereof” (priority 2006, dated 2010).
Marks after values point to notes of the source that are not given here.

Assays:
Assay type in all cases: in vivo, mouse
WT mice = experiment: ECG radiotelemetry: effect of betablockers on RR interval in WT mice
RyR2^+/RyR^R4496C mice [1] = experiment: Epinephrine and caffeine arrhythmia induction after propranolol pretreatment (continuous ECG monitoring)
Description: Arrhythmias were defined as follows: non sustained ventricular tachycardia (VTns) was defined as a series of 4 to 10 consecutive repetitive ventricular ectopic beats (VEBs), sustained VT (VTsust) was defined as a run of >10 consecutive VEBs, ventricular fibrillation (VF) was defined as a VTsust degenerating into ventricular fibrillation leading to sudden death.
(§1) ECG radiotelemetry monitors (Data Sciences International) were implanted intraabdominally under general anaesthesia (Avertin […]). Body temperature was maintained at 37° C. by use of a thermally controlled heating pad (Harvard Apparatus). ECG was continuously monitored starting 48 h after surgery. After 72 hours of recovery from surgery phenotype characterization was performed.
(§2) One group (Group 1) of animals exercised on a treadmill until exhaustion. The animals were then injected with epinephrine 2 mg/kg i.p. (WT n=12, RyR2^+/RyR^R4496C n=14). A second group of animals (Group 2) was injected with epinephrine (2 mg/kg ip) and caffeine (120 mg/kg i.p.) (WT, n=8, RyR2^+/RyR^R4496C, n=7). ECG monitoring was performed continuously during both exercise and drug testing protocols. Five additional RyR2^+/RyR^R4496C animals were treated for 24 hours with propranolol i.p. (2 mg/Kg) every 12 hours before being exposed to the epinephrine and caffeine protocol.
Among the RyR2^+/RyR^R4496C mice 4/8 or 50% developed sustained arrhythmias (VTsust n=2; FIG. 4 panel B and VF n=2; FIG. 5 panel B p=0.02 versus WT; Table I).
(§3) Five RyR2^+/RyR^R4496C mice were treated with propranolol to evaluate if antiadrenergic compounds could prevent induction of arrhythmias. After drug administration we observed a prolongation of RR interval from 94.5±13 to 118±13 msec […] (p<0.001). […] Despite pretreatment with betablockers, the administration of caffeine and epinephrine elicited VTsust in 2 and VF in 2 (sustained arrhythmias in 4 mice); only one mouse had no arrhythmias (p=0.56; i.e. non significant versus RyR2+/RyR^R4496C mice).

RyR2^+/RyR^R4496C mice [2] = experiment: ECG radiotelemetry: effect of propranolol on RR and QT interval in RyR2+/RyRR4496C mice
Description: The cardiac activity in transgenic animals is preferably measured by continuous ECG monitoring. ECG radiotelemetry monitors (Data Sciences International) are typically implanted intraabdominally under general anaesthesia. After recovery from surgery the electrocardiographic signal is recorded continuously in conscious animal kept in special cages provided with receivers and connected to a A/D converted an a PC for data storage. Off-line analyses of stored ECGs parameters comprise: quantification of arrhythmias, heart rate trends, heart rate variability assessment (power spectrum analysis), QT interval and T wave assessments. Other parameters of cardiac functionality measurable by ECG are the following: baseline QT interval (measured using the tangent method^23), RR interval, RR variability.
as §1, §2, §3

[3] = 5 pretreated mice, epinephrine 2 mg/kg i.p. and caffeine 120 mg/kg i.p.
[4] = Group 2, N=5, epinephrine and caffeine i.p.

Question: How did the “percentage of RR change after betablockers (Δ%=ΔRR*100/RR baseline)” value (WT mice; WT mice) turn out when `CC(C)NCC(O)COc1cccc2ccccc12` (stereo not shown) [propranolol] was run?
Answer: 27±5%

Question: What about the “mean prolongation of RR interval” value (WT mice; WT mice after betablockers) of the same compound?
Answer: 22.92 ± 3.6 ms

Question: And the “number of mice with VF” value (RyR2^+/RyR^R4496C mice [1]; [3])?
Answer: 2

Question: And the “number of mice with VTsust” value (RyR2^+/RyR^R4496C mice [1]; [3])?
Answer: 2

Question: And the “number of mice with no arrhythmias” value (RyR2^+/RyR^R4496C mice [1]; 5 pretreated mice, epinephrine and caffeine)?
Answer: one

Question: What about the “sustained arrhythmias (number of mice)” value (RyR2^+/RyR^R4496C mice [1]; 5 pretreated mice, epinephrine and caffeine, p=0.56 versus untreated RyR2+/RyR^R4496C mice) of the same compound?
Answer: 4 mice

Question: What about the “All VT/VF (sum of animals experiencing VTns or VTsust or VF)” value (RyR2^+/RyR^R4496C mice [1]; [4]) of the same compound?
Answer: 4

Question: And the “VTns (number of animals)” value (RyR2^+/RyR^R4496C mice [1]; [4])?
Answer: 0

Question: And the “VTsust & VF (number of animals)” value (RyR2^+/RyR^R4496C mice [1]; [4])?
Answer: 4

Question: And the “prevention of arrhythmias (in words)” value (RyR2^+/RyR^R4496C mice [1]; RyR2^+/RyR^R4496C mice)?
Answer: not effective in preventing arrhythmias

Question: What about the “Baseline RR” value (RyR2^+/RyR^R4496C mice [2]; Group 2, N=5, beta blockade, p=0.0001 vs untreated RyR2^+/RyR^R4496C) of the same compound?
Answer: 121 + 23*

Question: What about the “Baseline QT” value (RyR2^+/RyR^R4496C mice [2]; Group 2, N=5, beta blockade, tangent method, ANOVA P=0.966) of the same compound?
Answer: 23 + 0.2§

Question: And the “RR interval (in words)” value (RyR2^+/RyR^R4496C mice [2]; RyR2^+/RyR^R4496C animals pretreated with betablockers, Group 2)?
Answer: significantly prolonged

Question: What about the “mean prolongation of RR interval” value (RyR2^+/RyR^R4496C mice [2]; RyR2^+/RyR^R4496C mice after betablockers, p=0.69 vs WT) of the same compound?
Answer: 23.62 ± 0.14 ms

Question: What about the “percentage of RR change after betablockers (Δ%=ΔRR*100/RR baseline)” value (RyR2^+/RyR^R4496C mice [2]; RyR2^+/RyR^R4496C mice, p=0.52 vs WT) of the same compound?
Answer: 25±3%

Question: What about the “RR interval after drug administration” value (RyR2^+/RyR^R4496C mice [2]; five RyR2^+/RyR^R4496C mice, propranolol i.p. 2 mg/Kg every 12 hours for 24 hours, prolongation from 94.5±13, p<0.001) of the same compound?
Answer: 118 ± 13 ms
